According to patent publication US20260053171A1, “METHANOGEN INHIBITORS” (AGRIZERONZ LIMITED PARTNERSHIP, priority 2022, published 2026):

Tested on: methane production in rumen fluid
Assay: Rumen in vitro (RIV) assay, methane production from rumen fluid incubations
Type: cell-based, cattle
Conditions: Bos taurus, read-out: RIV % methane reduction +/− SD
Experimental: The compounds of the present invention were initially screened for activity using an in vitro fully automated incubation system for the measurement of total gas production and gas composition (methane and hydrogen). The system used is described in detail in the paper by Muetzel et al. (2014; Animal Feed Science and Technology 196, 1-11). The system in this specification is referred to as the rumen in vitro system or RIV. The RIV system provides a relatively simple tool for determining the rate and production of methane and also whether the rate and production of methane is inhibited or reduced by a particular compound or feed. Rumen in vitro assays use rumen fluid from donor animals (typically either sheep or cattle) which is typically combined with a buffer and then incubated in sealed fermentation vessels at 39° C. for either 24 or 48 h. These assays systems have been well-characterised and used by the scientific community over the last two decades (Rymer et al. 2005). The system that has been used here to characterise the effects of inhibitors on methane production and gas production, and the formation of H2, was described by Muetzel et al. (2014). Rumen in vitro assay systems reflect what can occur in the rumen in vivo, but only short-term, due to their short incubation times (typically not exceeding 48 h) which is limited by its buffering capacity and the fact that it is a closed system. Stock solutions of inhibitors were re-suspended in dimethylformamide (DMF) at concentrations 1000-fold higher than the highest used for the assays. Any further dilutions were also prepared using DMF. The total amount of inhibitor solution added to the rumen fluid-buffer mixture (60 mL) was 60 μl. Incubations used 60 ml of medium containing 12 ml of filtered rumen fluid and 48 ml of buffer in serum bottles for 24-48 h, essentially as described by Muetzel et al. (2014). Two fistulated cattle were used as donor animals for rumen fluid and treatments were incubated in duplicate bottles. Sets of duplicate incubation vials that contained ryegrass (with rumen fluid-buffer mixture), and ryegrass with 30 μM bromoethanesulfonate (BES) were also incubated as negative and positive controls, respectively. One experiment consists of 2 replicates of an inhibitor at any one concentration run at the same time, and a run can contain up to 32 bottle, including positive (30 µM BES) and negative (no inhibitor added) controls. Compound 1, for example, was tested using the 60 mL rumen in vitro assay system at 50 μM, 10 μM, and 2 μM final concentrations and compared to a positive control with 30 µM BES.

Structure (SMILES)	inhibition at 2 µM	inhibition at 10 µM	inhibition at 50 µM
CN(C)S(=O)(=O)NC(=O)CCC(=O)N1N=C(c2ccc(Cl)cc2)CC1c1ccc2nccnc2c1 (stereo not shown) [Compound 59, 4-(3-(4-Chlorophenyl)-5-(quinoxalin-6-yl)-4,5-dihydro-1H-pyrazol-1-yl)-N—(N,N-dimethylsulfamoyl)-4-oxobutanamide]	10.6 ± 2.5%	86.7 ± 7%	94.4 ± 4%
O=C(O)CCC(=O)N1N=C(c2ccc(Cl)cc2)CC1c1ccc2c(c1)OC(F)(F)O2 (stereo not shown) [Compound 38, 4-(3-(4-Chlorophenyl)-5-(2,2-difluorobenzo[d][1,3]dioxol-5-yl)-4,5-dihydro-1H-pyrazol-1-yl)-4-oxobutanoic acid]		55.8 ± 1.8%	93.4 ± 0.5%
O=C(O)CCC(=O)N1N=C(c2ccc(Br)cc2)CC1c1ccc2nccnc2c1 (stereo not shown) [Compound 9, 4-(3-(4-Bromophenyl)-5-(quinoxalin-6-yl)-4,5-dihydro-1H-pyrazol-1-yl)-4-oxobutanoic acid]			64.9 ± 1.9%
O=C(O)CCC(=O)N1N=C(c2ccc(-c3ccc(OC(F)(F)F)cc3F)cc2)CC1c1ccc2nccnc2c1 (stereo not shown) [Compound 101, 4-(3-(2′-Fluoro-4′-(trifluoromethoxy)-[1,1′-biphenyl]-4-yl)-5-(quinoxalin-6-yl)-4,5-dihydro-1H-pyrazol-1-yl)-4-oxobutanoic acid]		65.7 ± 2.9%	
O=C(O)CCC(=O)N1N=C(c2ccc(-c3ccc(N4CCCCC4)cc3)cc2)CC1c1ccc2nccnc2c1 (stereo not shown) [Compound 96, 4-Oxo-4-(3-(4′-(piperidin-1-yl)-[1,1′-biphenyl]-4-yl)-5-(quinoxalin-6-yl)-4,5-dihydro-1H-pyrazol-1-yl)butanoic acid]		8.2 ± 2.5%	73.3 ± 12.1%
COc1ccc(C2=NN(C(=O)CCC(=O)O)C(c3ccc4nccnc4c3)C2)cc1 (stereo not shown) [Compound 6, 4-(3-(4-Methoxyphenyl)-5-(quinoxalin-6-yl)-4,5-dihydro-1H-pyrazol-1-yl)-4-oxobutanoic acid]			5.6 ± 2%
CC(C)Sc1ccc(-c2ccc(C3=NN(C(=O)CCC(=O)O)C(c4ccc5nccnc5c4)C3)cc2)cc1 (stereo not shown) [Compound 93, 4-(3-(4′-(Isopropylthio)-[1,1′-biphenyl]-4-yl)-5-(quinoxalin-6-yl)-4,5-dihydro-1H-pyrazol-1-yl)-4-oxobutanoic acid]		49.1 ± 10.8%	
O=C(O)CCC(=O)N1N=C(c2ccc(-c3ccccc3)c(F)c2)CC1c1ccc2nccnc2c1 (stereo not shown) [Compound 110, 4-(3-(2-Fluoro-[1,1′-biphenyl]-4-yl)-5-(quinoxalin-6-yl)-4,5-dihydro-1H-pyrazol-1-yl)-4-oxobutanoic acid]		40.4 ± 7.6%	
O=C(O)/C=C\C(=O)N1N=C(c2ccc(Cl)cc2)CC1c1ccc2nccnc2c1 (stereo not shown) [Compound 52, (Z)-4-(3-(4-Chlorophenyl)-5-(quinoxalin-6-yl)-4,5-dihydro-1H-pyrazol-1-yl)-4-oxobut-2-enoic acid]			34.1 ± 1.3%
O=C(O)CCC(=O)N1N=C(c2ccc(-c3ccccc3Cl)cc2)CC1c1ccc2nccnc2c1 (stereo not shown) [Compound 17, 4-(3-(2′-Chloro-[1,1′-biphenyl]-4-yl)-5-(quinoxalin-6-yl)-4,5-dihydro-1H-pyrazol-1-yl)-4-oxobutanoic acid]	< 5%	74.2 ± 7.8%	90 ± 1.2%
O=C(O)CCC(=O)N1N=C(c2ccc(C(F)(F)F)cc2)CC1c1ccc2nccnc2c1 (stereo not shown) [Compound 5, 4-Oxo-4-(5-(quinoxalin-6-yl)-3-(4-(trifluoromethyl)phenyl)-4,5-dihydro-1H-pyrazol-1-yl)butanoic acid]			46.5 ± 2.7%
CN(C)c1ccc(-c2ccc(C3=NN(C(=O)CCC(=O)O)C(c4ccc5nccnc5c4)C3)cc2)cc1 (stereo not shown) [Compound 95, 4-(3-(4′-(Dimethylamino)-[1,1′-biphenyl]-4-yl)-5-(quinoxalin-6-yl)-4,5-dihydro-1H-pyrazol-1-yl)-4-oxobutanoic acid]		68.3 ± 2.1%	
O=C(O)CCC(=O)N1N=C(c2ccc(Cl)cc2)CC1c1cccc2nccnc12 (stereo not shown) [Compound 33, 4-(3-(4-Chlorophenyl)-5-(quinoxalin-5-yl)-4,5-dihydro-1H-pyrazol-1-yl)-4-oxobutanoic acid]			18.4 ± 3.7%
O=C(O)CCC(=O)N1N=C(c2ccc(-c3cccnc3)cc2)CC1c1ccc2nccnc2c1 (stereo not shown) [Compound 30, 4-Oxo-4-(3-(4-(pyridin-3-yl)phenyl)-5-(quinoxalin-6-yl)-4,5-dihydro-1H-pyrazol-1-yl)butanoic acid]			9.3 ± 2.8%
O=C(O)CCC(=O)N1N=C(c2ccc(-c3cccc(OC(F)(F)F)c3)cc2)CC1c1ccc2nccnc2c1 (stereo not shown) [Compound 21, 4-Oxo-4-(5-(quinoxalin-6-yl)-3-(3′-(trifluoromethoxy)-[1,1′-biphenyl]-4-yl)-4,5-dihydro-1H-pyrazol-1-yl)butanoic acid]	15.8 ± 1.1%	91.9 ± 1.5%	97.9%
O=C(O)CCC(=O)N1N=C(c2ccc(-c3ccc(Cl)c(Cl)c3)cc2)CC1c1ccc2nccnc2c1 (stereo not shown) [Compound 27, 4-(3-(3′,4′-Dichloro-[1,1′-biphenyl]-4-yl)-5-(quinoxalin-6-yl)-4,5-dihydro-1H-pyrazol-1-yl)-4-oxobutanoic acid]		48.3 ± 7.5%	92.1 ± 1.1%
O=C(O)CCC(=O)N1N=C(c2ccc(Cl)cc2)CC1c1ccc2c(c1)OCCO2 (stereo not shown) [Compound 39, 4-(3-(4-Chlorophenyl)-5-(2,3-dihydrobenzo[b][1,4]dioxin-6-yl)-4,5-dihydro-1H-pyrazol-1-yl)-4-oxobutanoic acid]		20 ± 5.1%	79.2%
Cc1ccc(-c2ccc(C3=NN(C(=O)CCC(=O)O)C(c4ccc5nccnc5c4)C3)cc2)cc1 (stereo not shown) [Compound 23, 4-(3-(4′-Methyl-[1,1′-biphenyl]-4-yl)-5-(quinoxalin-6-yl)-4,5-dihydro-1H-pyrazol-1-yl)-4-oxobutanoic acid]		69 ± 3.7%	94.8 ± 0.4%
CS(=O)(=O)NC(=O)CCC(=O)N1N=C(c2ccc(Cl)cc2)CC1c1ccc2nccnc2c1 (stereo not shown) [Compound 55, 4-(3-(4-Chlorophenyl)-5-(quinoxalin-6-yl)-4,5-dihydro-1-pyrazol-1-yl)-N-(methylsulfonyl)-4-oxobutanamide]	< 5%	70 ± 4.5%	96.1 ± 0.5%
CC(C)Oc1ccc(-c2ccc(C3=NN(C(=O)CCC(=O)NS(=O)(=O)C(C)C)C(c4ccc5nccnc5c4)C3)cc2)cc1 (stereo not shown) [Compound 120, 4-(3-(4′-Isopropoxy-[1,1′-biphenyl]-4-yl)-5-(quinoxalin-6-yl)-4,5-dihydro-1H-pyrazol-1-yl)-N-(isopropylsulfonyl)-4-oxobutanamide]	12.6 ± 1.4%	70.4 ± 5.5%	
CC(C)(C)Oc1ccc(-c2ccc(C3=NN(C(=O)CCC(=O)O)C(c4ccc5nccnc5c4)C3)cc2)cc1 (stereo not shown) [Compound 81, 4-(3-(4′-(tert-Butoxy)-[1,1′-biphenyl]-4-yl)-5-(quinoxalin-6-yl)-4,5-dihydro-1H-pyrazol-1-yl)-4-oxobutanoic acid]		29.8 ± 17.8%	
COc1ccc(C2CC(c3ccc(Cl)cc3)=NN2C(=O)CCC(=O)O)cc1OC (stereo not shown) [Compound 43, 4-(3-(4-Chlorophenyl)-5-(3,4-dimethoxyphenyl)-4,5-dihydro-1H-pyrazol-1-yl)-4-oxobutanoic acid]			39.7 ± 7.2%
COc1ccc(C2CC(c3ccc(Cl)cc3)=NN2C(=O)CCC(=O)O)cc1O (stereo not shown) [Compound 44, 4-(3-(4-Chlorophenyl)-5-(3-hydroxy-4-methoxyphenyl)-4,5-dihydro-1H-pyrazol-1-yl)-4-oxobutanoic acid]			31.3 ± 0.8%
